According to patent publication US20060211697A1, “2-(2 Or 4-substituted aryloxy)-phenol derivatives as antibacterial agents” (priority 2004, published 2006):
≈ marks a conversion by molar mass, not a printed value. Like-named read-outs stand apart in the source and are kept apart here.

Tests used:
H. influenzae 43095 = test: MIC, broth dilution method, H. influenzae; assay type: cell-based
Procedure: (§1) Minimum Inhibition Concentration (MIC), Broth Dilution Method:
(§2) The compounds of the present invention were tested against an assortment of Gram positive and Gram negative organisms using standard microtitration techniques well known to those skilled in the art. Cultures of bacteria are initially brought up from the freezer by streaking a loopful onto agar plates under the appropriate conditions. For instance bacterial stocks are streaked onto chocolate agar and then incubated for 18 hours at 35-37° C. in a 5% CO2 incubator. Five to ten colonies are picked from the chocolate agar plate for subculture to Brain-Heart infusion (BHI) broth, Mueller Hinton broth, or BHI containing 4% serum and incubated under the appropriate conditions. The ability of the test compound to act as an antimicrobial is determined by the ability to inhibit bacterial growth in vitro. The optical density of the culture of organisms in the presence of an active compound is compared to the optical density of the same organism untreated. The activity of the compounds is described as either negative or the lowest concentration inhibiting growth (Minimum Inhibitory Concentration [MIC]).

E. coli 43888 = test: MIC, broth dilution method, E. coli; assay type: cell-based
Procedure: as §1, §2

S. aureus 29213 = test: MIC, broth dilution method, S. aureus; assay type: cell-based
Procedure: as §1, §2

S. pneumoniae 11733 = test: MIC, broth dilution method, S. pneumoniae; assay type: cell-based
Procedure: as §1, §2

[1] = Haemophilus influenzae, 43095, Gram-negative bacteria, in vitro, broth dilution, read-out: MIC H. influenzae 43095
[2] = Escherichia coli, 43888, Gram-negative bacteria, in vitro, broth dilution, read-out: MIC E. coli 43888
[3] = Staphylococcus aureus, 29213, Gram-positive bacteria, in vitro, broth dilution, read-out: MIC S. aureus 29213
[4] = Streptococcus pneumoniae, 11733, Gram-positive bacteria, in vitro, broth dilution, read-out: MIC S. pneumoniae 11733

| Compound | MIC (H. influenzae 43095; [1]) [µg/mL] | MIC (E. coli 43888; [2]) [µg/mL] | MIC (S. aureus 29213; [3]) [µg/mL] | MIC (S. pneumoniae 11733; [4]) [µg/mL] | melting point [°C] | also measured |
| --- | --- | --- | --- | --- | --- | --- |
| Oc1cc(F)ccc1Oc1ccc(Cl)cc1-c1ncon1 [Example 44, 2-(4-Chloro-2-[1,2,4]oxadiazol-3-yl-phenoxy)-5-fluoro-phenol] | 2 (≈ 6.52 µM) | 2 (≈ 6.52 µM) | 0.5 (≈ 1.63 µM) | > 32 |  |  |
| Oc1ccccc1Oc1ccccc1-c1nnn[nH]1 [Example 20, 2-[2-(1H-Tetrazol-5-yl)-phenoxy]-phenol and 2-[2-(2H-tetrazol-5-yl)-phenoxy]-phenol] | 4 (≈ 15.7 µM) | 2 (≈ 7.87 µM) | 0.25 (≈ 0.983 µM) | 4 (≈ 15.7 µM) |  |  |
| Cc1ccc(Oc2ccc(-c3noc(C(=O)O)n3)cc2)c(O)c1 [Example 40, 3-[4-(2-Hydroxy-4-methyl-phenoxy)-phenyl]-[1,2,4]oxadiazole-5-carboxylic acid] | 4 (≈ 12.8 µM) | 8 (≈ 25.6 µM) | 4 (≈ 12.8 µM) | 16 (≈ 51.2 µM) |  |  |
| Oc1cc(Cl)ccc1Oc1ccc(Cl)cc1-c1nnn[nH]1 [Example 19, 5-chloro-2-[4-Chloro-2-(1H-tetrazol-5-yl)-phenoxy]-phenol and 5-chloro-2-[4-chloro-2-(2H-tetrazol-5-yl)-phenoxy]-phenol] | 2 (≈ 6.19 µM) | 4 (≈ 12.4 µM) | 0.125 (≈ 0.387 µM) | 2 (≈ 6.19 µM) |  |  |
| Cc1ccc(Oc2ccc(/C(N)=N/O)cc2)c(O)c1 [Example 30, N-Hydroxy-4-(2-hydroxy-4-methyl-phenoxy)-benzamidine] | 31.3 (≈ 121 µM) | 0.5 (≈ 1.94 µM) | 4 (≈ 15.5 µM) | 62.5 (≈ 242 µM) |  |  |
| Cc1ccc(Oc2ccc([N+](=O)[O-])cc2-c2nnn[nH]2)c(O)c1 [Example 16, 5-Methyl-2-[4-nitro-2-(1H-tetrazol-5-yl)-phenoxy]-phenol and 5-methyl-2-[4-nitro-2-(2H-tetrazol-5-yl)-phenoxy]-phenol] | 31.3 (≈ 99.9 µM) | 31.3 (≈ 99.9 µM) | 2 (≈ 6.38 µM) | 7.9 (≈ 25.2 µM) |  |  |
| Cc1ccc(Oc2ccc(-c3ncon3)cc2)c(O)c1 [Example 45, 5-Methyl-2-(4-[1,2,4]oxadiazol-3-yl-phenoxy)-phenol] | 4 (≈ 14.9 µM) | 1 (≈ 3.73 µM) | 0.5 (≈ 1.86 µM) | 1 (≈ 3.73 µM) |  |  |
| Cc1ccc(Oc2ccc(-n3cccc3)cc2)c(O)c1 |  |  |  |  | 95 to 96 |  |
| Oc1cc(Cl)ccc1Oc1ccccc1-c1ncon1 [Example 57, 5-Chloro-2-(2-[1,2,4]oxadiazol-3-yl-phenoxy)-phenol] | 0.05 (≈ 0.173 µM) | 0.05 (≈ 0.173 µM) | 0.05 (≈ 0.173 µM) | 6.2 (≈ 21.5 µM) |  |  |
| Cc1ccc(Oc2ccc([N+](=O)[O-])cc2-c2ncon2)c(O)c1 |  |  |  |  | 159 to 160 |  |
| CCOC(=O)c1cnn(-c2ccccc2Oc2ccc(C)cc2O)c1 |  |  |  |  | 118 to 119 |  |
| Cc1ccc(Oc2ccccc2-c2ncon2)c(O)c1 [Example 43, 5-Methyl-2-(2-[1,2,4]oxadiazol-3-yl-phenoxy)-phenol] | 4 (≈ 14.9 µM) | 0.5 (≈ 1.86 µM) | 0.5 (≈ 1.86 µM) | 15.7 (≈ 58.5 µM) |  |  |
| CCOC(=O)c1nc(-c2ccccc2Oc2ccc(Cl)cc2O)no1 [Example 51, 3-[2-(4-Chloro-2-hydroxy-phenoxy)-phenyl]-[1,2,4]oxadiazole-5-carboxylic acid ethyl ester] | 3.1 (≈ 8.59 µM) | 6.2 (≈ 17.2 µM) | 0.4 (≈ 1.11 µM) | > 25 |  |  |
| Cc1ccc(Oc2ccccc2NN)c(O)c1 [Example 66, 2-(2-Hydrazino-phenoxy)-5-methyl-phenol] |  |  |  |  |  | MIC (H. influenzae 43095; Haemophilus influenzae, 43095, read-out: MIC H. influenzae 43095): 0.1 µg/mL (≈ 0.434 µM); MIC (E. coli 43888; Escherichia coli, 43888, read-out: MIC E. coli 43888): 0.8 µg/mL (≈ 3.47 µM); MIC (S. aureus 29213; Staphylococcus aureus, 29213, read-out: MIC S. aureus 29213): 0.1 µg/mL (≈ 0.434 µM); MIC (S. pneumoniae 11733; Streptococcus pneumoniae, 11733, read-out: MIC S. pneumoniae 11733): 3.1 µg/mL (≈ 13.5 µM) |
| Cc1ccc(Oc2ccc(NN)cc2)c(O)c1 [Example 67, 2-(4-Hydrazino-phenoxy)-5-methyl-phenol] | 0.1 (≈ 0.434 µM) | 0.4 (≈ 1.74 µM) | 0.1 (≈ 0.434 µM) | 6.2 (≈ 26.9 µM) |  |  |
| O=C(O)c1nc(-c2ccccc2Oc2ccc(Cl)cc2O)no1 [Example 54, 3-[2-(4-Chloro-2-hydroxy-phenoxy)-phenyl]-[1,2,4]oxadiazole-5-carboxylic acid] | 0.2 (≈ 0.601 µM) | 0.2 (≈ 0.601 µM) | 0.05 (≈ 0.15 µM) | 3.1 (≈ 9.32 µM) |  |  |
| CCOC(=O)c1cnn(-c2ccc(Oc3ccc(C)cc3O)cc2)c1 [Example 69, 1-[4-(2-Hydroxy-4-methyl-phenoxy)-phenyl]-1H-pyrazole-4-carboxylic acid ethyl ester] | > 25 | 1.6 (≈ 4.73 µM) | 0.2 (≈ 0.591 µM) | > 25 |  |  |
| Cc1ccc(Oc2ccccc2-c2noc(=O)[nH]2)c(O)c1 |  |  |  |  | 213 to 214 |  |

| Compound | MIC (H. influenzae 43095; [1]) [µg/mL] | MIC (E. coli 43888; [2]) [µg/mL] | MIC (S. aureus 29213; [3]) [µg/mL] | MIC (S. pneumoniae 11733; [4]) [µg/mL] | melting point [°C] | also measured |
| --- | --- | --- | --- | --- | --- | --- |
| Cc1ccc(Oc2ccc(-c3noc(=O)[nH]3)cc2)c(O)c1 |  |  |  |  | 195 to 198 |  |
| N/C(=N\O)c1ccccc1Oc1ccc(F)cc1O |  |  |  |  | 64 to 65 |  |
| Cc1ccc(Oc2ccccc2/C(N)=N/O)c(O)c1 |  |  |  |  | 85 to 87 |  |
| CCOC(=O)c1nc(-c2ccccc2Oc2ccc(F)cc2O)no1 |  |  |  |  | 82 to 83 |  |
| Cc1ccc(Oc2ccc(-c3ccsc3)cc2O)c(O)c1 |  |  |  |  | 143 to 145 |  |
| Cc1ccc(Oc2ccc([N+](=O)[O-])cc2-c2noc(C(=O)O)n2)c(O)c1 [Example 39, 3-[2-(2-Hydroxy-4-methyl-phenoxy)-5-nitro-phenyl]-[1,2,4]oxadiazole-5-carboxylic acid] | 8 (≈ 22.4 µM) | 4 (≈ 11.2 µM) | 0.5 (≈ 1.4 µM) | > 32 |  |  |
| Oc1cc(F)ccc1Oc1ccc(Cl)cc1-c1nnn[nH]1 [Example 18, 2-[4-Chloro-2-(1H-tetrazol-5-yl)-phenoxy]-5-fluoro-phenol and 2-[4-chloro-2-(2H-tetrazol-5-yl)-phenoxy]-5-fluoro-phenol] | 4 (≈ 13 µM) | 7.9 (≈ 25.8 µM) | 0.125 (≈ 0.408 µM) | 0.25 (≈ 0.815 µM) |  |  |
| Oc1cc(F)ccc1Oc1ccccc1-c1ncon1 [Example 42, 5-Fluoro-2-(2-[1,2,4]oxadiazol-3-yl-phenoxy)-phenol] | 1 (≈ 3.67 µM) | 1 (≈ 3.67 µM) | 1 (≈ 3.67 µM) | > 32 |  |  |
| COC(=O)c1cn(-c2ccc(Oc3ccc(C)cc3O)cc2)nn1 |  |  |  |  | 148 to 151 |  |
| Oc1cc(F)ccc1Oc1ccc(-c2ccco2)cc1O [Example 12, 5-(Furan-2-yl)-2-(4-fluoro-2-hydroxy-phenoxy)-phenol] | 7.9 (≈ 27.6 µM) | 2 (≈ 6.99 µM) | 4 (≈ 14 µM) | 0.5 (≈ 1.75 µM) |  |  |
| Cc1ccc(Oc2ccc(-c3nnc(N)o3)cc2)c(O)c1 [Example 24, 2-[4-(5-Amino-[1,3,4]oxadiazol-2-yl)-phenoxy]-5-methyl-phenol] | 12.5 (≈ 44.1 µM) | 6.2 (≈ 21.9 µM) | 0.8 (≈ 2.82 µM) | 12.5 (≈ 44.1 µM) |  |  |
| COC(=O)c1cn(-c2ccccc2Oc2ccc(C)cc2O)nn1 |  |  |  |  | 153 to 155 |  |
| Cc1ccc(Oc2ccccc2-c2noc(C(=O)O)n2)c(O)c1 [Example 37, 3-[2-(2-Hydroxy-4-methyl-phenoxy)-phenyl]-[1,2,4]oxadiazole-5-carboxylic acid] | 0.5 (≈ 1.6 µM) | 0.5 (≈ 1.6 µM) | 0.125 (≈ 0.4 µM) | 8 (≈ 25.6 µM) |  |  |
| O=C(O)c1nc(-c2ccccc2Oc2ccc(F)cc2O)no1 |  |  |  |  | 127 to 128 |  |
| Cc1ccc(Oc2ccc(-n3cc(C(=O)O)cn3)cc2)c(O)c1 [Example 71, 1-[4-(2-Hydroxy-4-methyl-phenoxy)-phenyl]-1H-pyrazole-4-carboxylic acid] | 25 (≈ 80.6 µM) | > 25 | 3.1 (≈ 9.99 µM) | 12.5 (≈ 40.3 µM) |  |  |
| COC(=O)C1CSC(c2ccc(Oc3ccc(C)cc3O)cc2)N1 (centres unmarked) |  |  |  |  | 134 to 135 |  |
| Cc1ccc(Oc2ccc(-c3ccco3)cc2O)c(O)c1 [Example 4, 2-(2-Hydroxy-4-methyl-phenoxy)-5-(furan-2-yl)-phenol] | 7.9 (≈ 28 µM) | 0.5 (≈ 1.77 µM) | 2 (≈ 7.08 µM) | 1 (≈ 3.54 µM) |  |  |
